Read-outs that look alike come from different tables or passages of the source.
Key:
Sirtuin 1 = conditions: cited from earlier work
human SIRT1 [1] = target: T1, human SIRT1 (Homo sapiens, UniProt Q96EB6); assay: Thermal shift assay (TSA) of Sirtuin 1 without NAD+; type: binding; parameters: TSA(without NAD+) Primary screening (TSA) TmD (K): unit not given here; conditions: for TSA(without NAD+) Primary screening (TSA) TmD (K) / ΔTm at 10 µM: 10 µM, n = 1; for ΔTm at 10 µM: read-out: TSA(without NAD+) Primary screening (TSA) delta Tm (K)
T1 construct: host or cells: Escherichia coli M15
T1 sequence (Q96EB6 with tags, fused parts or gaps): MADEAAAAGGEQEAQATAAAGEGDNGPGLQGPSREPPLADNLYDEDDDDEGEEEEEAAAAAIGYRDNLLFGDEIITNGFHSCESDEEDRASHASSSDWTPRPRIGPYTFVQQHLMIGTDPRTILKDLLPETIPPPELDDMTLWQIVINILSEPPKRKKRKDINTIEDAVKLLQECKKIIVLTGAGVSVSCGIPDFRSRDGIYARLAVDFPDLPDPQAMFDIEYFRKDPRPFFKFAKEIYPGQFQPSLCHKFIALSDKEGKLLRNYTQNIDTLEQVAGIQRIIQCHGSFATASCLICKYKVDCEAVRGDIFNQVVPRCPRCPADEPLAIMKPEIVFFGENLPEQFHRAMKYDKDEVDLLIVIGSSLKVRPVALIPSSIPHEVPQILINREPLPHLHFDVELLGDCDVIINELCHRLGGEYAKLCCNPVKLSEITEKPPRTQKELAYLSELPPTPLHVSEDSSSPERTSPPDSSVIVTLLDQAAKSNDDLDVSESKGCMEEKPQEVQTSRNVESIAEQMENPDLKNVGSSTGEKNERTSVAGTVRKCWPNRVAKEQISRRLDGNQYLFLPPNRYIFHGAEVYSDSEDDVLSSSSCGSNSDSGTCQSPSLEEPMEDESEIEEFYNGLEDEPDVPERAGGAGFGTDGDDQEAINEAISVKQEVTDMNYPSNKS
Protocol: (§1) A total of 3,192 compounds extracted from the proposed lists were first screened by thermal shift assay (TSA), which determined a melting temperature shift (ΔTm) of Sirtuin 1 upon the addition of a test compound at a concentration of 10 µM (n = 1) with primary hit criteria of ΔTm > 0.45 K or ΔTm < −1.5 K. Primary hits (48 compounds) were retested in the same assay at three concentrations (5, 10, 20 µM, n = 4) for hit confirmation and for dose-dependency check. Secondary hits (41 compounds) were checked their selectivity for Sirtuin 1 based on counterscreening on unrelated protein targets (bovine carbonic anhydrase (CA) and recombinant SH2 domain of hABL1 kinase (ABL1)) at three different concentrations (5, 10, 20 µM, n = 4), which yielded 38 hit compounds, hereafter referred to as TSA hits. The TSA screening above was conducted in the absence of NAD^+. As noted, the structure of Sirtuin 1 is different in the presence of NAD^+ and substrate. The chemical profile of TSA hits found from the different conditions could be different. […] As a result, 39 TSA hits were found. Regardless of the presence of NAD^+, 29 compounds were shared in both TSA hits.
B. Setup and validation of Protein Thermal Shift Assay.
All tested compounds were obtained from the screening compound collection of Enamine Ltd.
(Kiev, Ukraine). Stock solutions of the tested compounds were prepared at 10 mM in 100% DMSO and were stored at −20 °C until use. All thermal shift assay (TSA) experiments with SIRT1 protein were performed using ViiA™7 real-time PCR System equipped with 384-well heat block (Applied Biosystems, USA). General TSA methodology was adopted from the literature3-5 and experimentally modified in order to optimize conditions for measuring SIRT1 melting temperature shifts upon interaction with small molecules. To define the optimal buffer composition for the TSA procedure, a matrix of common buffers combined on a 96-well plate (Figure S3) was tested in thermal melt experiment on a 384-well plate (each buffer composition in quadruplicate). In addition, each buffer composition shown on Figure S3 was tested at two different buffering component concentrations, as listed in Table S1, resulting in two 384-well plate buffer screening experiments and the total of 192 different buffer compositions tested.
Figure S3. Matrix plate of the buffer compositions assessed for TSA optimization.
(1 picture or pasted object on this page, not shown here)
(§2) Table S1. Buffer concentrations used for preparing buffer composition matrix screening plates.
(§3) Buffer Plate 1 (mM) Plate 2 (mM)
(§4) Selection of the optimal buffer composition was based on balancing several criteria including undistorted protein melting curve, maximized melting temperature stability of SIRT1 protein and maximized melting temperature shift induced by the acetylated histone H3K9 peptide (KQTARK(Ac)STGG, a natural substrate of SIRT1). Thermal shift experiments were done at 120 µM H3K9 in the presence of 500 µM NAD+, a co-factor of SIRT1. Separate additions of H3K9 or […]
result, the buffer consisting of 20 mM Tris-HCl pH 8 and 50 mM NaCl was selected for the screening. Purified SIRT1 protein was pre-mixed with SYPRO Orange dye (Thermo Fischer Scientific, Cat. S6650, 5000x stock) to prepare a master mix at 400 µg/mL protein and 10x dye concentration. Tested compounds were added to the protein-dye master mix at 10 µM (1% final DMSO concentration) and incubated for 1 h at 4 °C in MicroAmp® optical 384-well reaction plates (ThermoFisher, Cat. 4309849) sealed with optical sealing film (ThermalSeal RT2, Excel Scientific, Cat. TS-RT2). The volumes of all reaction mixtures were 10 µL (4 µg SIRT1 per well). The reaction plates were then kept at ambient temperature (22-24 °C) for additional 15 minutes to ensure protein-compound interactions. Thermal scanning was performed by raising temperature to 35 °C at 1.6 °C/min without signal detection followed by 35 °C to 75 °C temperature ramp at 0.05 °C/s with […]

human SIRT1 [2] = target: T1, human SIRT1; assay: SIRT-Glo luminogenic enzymatic inhibitory assay (inhibition rate and IC50); type: biochemical; conditions: n = 4, read-out: IC50
[3] = system: bovine carbonic anhydrase (CA); assay: TSA counterscreening on unrelated protein, carbonic anhydrase; type: binding; conditions: combined verdict on CA and Abl SH2; TSA flow with NAD+
Protocol: as §1

human SIRT1 [4] = target: T1, human SIRT1; assay: Thermal shift assay (TSA) of Sirtuin 1 in the presence of NAD+; type: binding; conditions: 10 µM, n = 1; read-out: TSA(with NAD+) Primary screening (TSA) delta Tm (K)
Protocol: as §1, §2, §3, §4
result, the buffer consisting of 20 mM Tris-HCl pH 8 and 50 mM NaCl was selected for the screening. Purified SIRT1 protein was pre-mixed with SYPRO Orange dye (Thermo Fischer Scientific, Cat. S6650, 5000x stock) to prepare a master mix at 400 µg/mL protein and 10x dye concentration. Tested compounds were added to the protein-dye master mix at 10 µM (1% final DMSO concentration) and incubated for 1 h at 4 °C in MicroAmp® optical 384-well reaction plates (ThermoFisher, Cat. 4309849) sealed with optical sealing film (ThermalSeal RT2, Excel Scientific, Cat. TS-RT2). The volumes of all reaction mixtures were 10 µL (4 µg SIRT1 per well). The reaction plates were then kept at ambient temperature (22-24 °C) for additional 15 minutes to ensure protein-compound interactions. Thermal scanning was performed by raising temperature to 35 °C at 1.6 °C/min without signal detection followed by 35 °C to 75 °C temperature ramp at 0.05 °C/s with constant fluorescence intensity reading at 1 sec intervals using EX470/EM623 nm filter set. Primary screening of the whole test set of 3,192 compounds was carried out in singletons. The raw data of dye fluorescence intensity change upon protein melt were exported using the ViiA7 RUO software (Applied Biosystems/ThermoFischer Scientific). Further data visualization, curve fitting, melting temperature calculations on the raw fluorescence data were performed using custom-made Microsoft Excel scripts developed by us. The peak of the first derivative for the fluorescence curve was used to define melting temperature (Tm). Averaged Tm values for the control wells (64 wells per plate), containing only the protein, dye and 1% DMSO were used as a reference point to determine melting temperature shifts (ΔTm). Hit selection criteria was ΔTm > 0.45 °C or ΔTm < −1.5 °C. All primary hits were re-tested in the same assay at 3 concentrations (20, 10 and 5 µM, n = 4) for hit confirmation

SMILES	TSA(without NAD+) Primary screening (TSA) TmD (K) (human SIRT1 [1])	ΔTm at 10 µM (human SIRT1 [1])	ΔTm at 10 µM (human SIRT1 [4])	further results
CC(C)(C)NS(=O)(=O)c1ccc2c(c1)Nc1ccccc1CC2 [CHEMBL3222149]				Inh. rate@100 μM (Sirtuin 1; 100 μM): 0.65 (Inh. rate@100 μM = 10%)[72]
O=C1NC(=O)c2ccccc2/C1=C\NNC(=O)C12CC3CC(CC(C3)C1)C2 [Compound Z165047618]				ΔTm, additional TSA experiment (human SIRT1 [1]; without NAD+, n = 4): −0.03 K; IC50 (human SIRT1 [2]; final Sirtuin 1 concentration 30 nM (compounds marked *)): 13 µM
NCc1nc2c(cnn2-c2ccccc2)c(=O)[nH]1 [Compound Z235344735]				IC50 (human SIRT1 [2]; final Sirtuin 1 concentration 20 nM): 7.6 µM
COc1ccc(CNCc2c(-c3nnc(SC(C)C)n3-c3ccccc3)n(C)c3ccc(F)cc23)cc1 [CHEMBL2436120]				Inh. rate@40 μM (Sirtuin 1; 40 μM): 0.65 (Inh. rate@40 μM: 70%)[70]
CC1(C)CC(=O)C2=C(C1)N(NC(=O)c1ccncc1)C1=C(C(=O)CC(C)(C)C1)C2c1ccccc1OCc1ccccc1 [CHEMBL1762050]				Inh. rate@50 μM (Sirtuin 1; 50 μM): 0.60 (Inh. rate@50 μM = 70%)[71]
Cc1ccc(C(CNC(=O)c2ccc(C(N)=O)cc2)N2CCCC2)o1 (centres unmarked) [Compound Z1001367730]	49.64	-0.08 °C	-0.11 °C	
O=C(CNC(=O)c1nc(-c2ccccc2)no1)Nc1ccccc1 [CHEMBL449117]				Inhibition rate@200 μM (Sirtuin 1; 200 μM): 0.64 (Inhibition rate@200 μM: 28%)[69]

The next lines start with results.

TSA(without NAD+) Primary screening (TSA) TmD (K) (human SIRT1 [1])	ΔTm at 10 µM (human SIRT1 [1])	ΔTm at 10 µM (human SIRT1 [4])	SMILES	further results
49.54	-0.07 °C	0.68 °C	O=c1[nH]c2ccc(S(=O)(=O)NCc3cc4ccccc4[nH]3)cc2[nH]1 [Compound Z1003449802]	TSA(with NAD+) Counter Screening (Carbonic anhydrase AND Abl kinase SH2 domain) Good/Bad [3]: Bad
49.54	-0.05 °C	0.09 °C	CC(Nc1ccc2nnnn2n1)c1ccc(Oc2ccccc2)cc1 (centres unmarked) [Compound Z1002316132]	

Source: paper PMC6925144, “A prospective compound screening contest identified broader inhibitors for Sirtuin 1” (Scientific Reports, 2019)
